Laboratory results taken from ChEMBL document CHEMBL1155346, “Synthesis, photochemical E (trans)-->Z (cis) isomerization and antimicrobial activity of 2-chloro-5-methylpyridine-3-olefin derivatives” (2009).
Values after ≈ are worked out from the molar mass of the structure shown.

Columns and labels:
Format in all cases: functional
Rhizopus arrhizus [1] = experiment: Antifungal activity against Rhizopus oryzae at 100 ug; conditions: read-out: DIZ
Pseudomonas aeruginosa = experiment: Antibacterial activity against Pseudomonas aeruginosa MTCC 741 by broth dilution method
Candida albicans [2] = experiment: Antifungal activity against Candida albicans at 150 ug; conditions: read-out: DIZ
Candida albicans [3] = experiment: Antifungal activity against Candida albicans at 100 ug; conditions: read-out: DIZ
Bacillus subtilis = experiment: Antibacterial activity against Bacillus subtilis MTCC 441 by broth dilution method
Rhizopus arrhizus [4] = experiment: Antifungal activity against Rhizopus oryzae at 150 ug; conditions: read-out: DIZ
Escherichia coli = experiment: Antibacterial activity against Escherichia coli by broth dilution method
Aspergillus niger [5] = experiment: Antifungal activity against Aspergillus niger at 100 ug; conditions: read-out: DIZ
Aspergillus niger [6] = experiment: Antifungal activity against Aspergillus niger at 150 ug; conditions: read-out: DIZ
Staphylococcus aureus = experiment: Antibacterial activity against Staphylococcus aureus MTCC 11 by broth dilution method
Saccharomyces cerevisiae [7] = experiment: Antifungal activity against Saccharomyces cerevisiae at 150 ug; conditions: read-out: DIZ
Saccharomyces cerevisiae [8] = experiment: Antifungal activity against Saccharomyces cerevisiae at 100 ug; conditions: read-out: DIZ

Row | Compound | MIC (Pseudomonas aeruginosa) [mg/L] | MIC (Bacillus subtilis) [mg/L] | MIC (Escherichia coli) [mg/L] | MIC (Staphylococcus aureus) [mg/L] | zone of inhibition at 100 µg/disc (Rhizopus arrhizus [1]) [mm] | zone of inhibition at 150 µg/disc (Candida albicans [2]) [mm] | zone of inhibition at 100 µg/disc (Candida albicans [3]) [mm] | zone of inhibition at 150 µg/disc (Rhizopus arrhizus [4]) [mm] | zone of inhibition at 100 µg/disc (Aspergillus niger [5]) [mm] | zone of inhibition at 150 µg/disc (Aspergillus niger [6]) [mm] | zone of inhibition at 150 µg/disc (Saccharomyces cerevisiae [7]) [mm] | zone of inhibition at 100 µg/disc (Saccharomyces cerevisiae [8]) [mm]
1 | Cc1cnc(Cl)c(/C=C/C#N)c1 | 75 (≈ 420 µM) | 75 (≈ 420 µM) | 75 (≈ 420 µM) | 75 (≈ 420 µM) | 10 | 12 | 10 | 12 | 13 | 15 | – | –
2 | COC(=O)/C=C\c1cc(C)cnc1Cl | 37.5 (≈ 177 µM) | 37.5 (≈ 177 µM) | 37.5 (≈ 177 µM) | 8.12 (≈ 38.4 µM) | 10 | 13 | 11 | 11 | 14 | 17 | – | –
3 | CN[C@@H]1[C@H](O[C@H]2[C@H](O[C@H]3[C@H](O)[C@@H](O)[C@H](N=C(N)N)[C@@H](O)[C@@H]3N=C(N)N)O[C@@H](C)[C@]2(O)C=O)O[C@@H](CO)[C@H](O)[C@H]1O [STREPTOMYCIN] | 3.12 (≈ 5.37 µM) | 6.25 (≈ 10.7 µM) | 1.56 (≈ 2.69 µM) | 6.25 (≈ 10.7 µM) | – | – | – | – | – | – | – | –
4 | CC(=O)/C=C\c1cc(C)cnc1Cl | 37.5 (≈ 192 µM) | 37.5 (≈ 192 µM) | 37.5 (≈ 192 µM) | 75 (≈ 383 µM) | 11 | 11 | 9 | 13 | 14 | 16 | – | –
5 | C[C@@H]1[C@H](O)[C@@H](C)/C=C/C=C/C=C/C=C/C=C/C=C/C=C/[C@H](O[C@@H]2O[C@H](C)[C@@H](O)[C@H](N)[C@@H]2O)C[C@@H]2O[C@](O)(C[C@@H](O)C[C@@H](O)[C@H](O)CC[C@@H](O)C[C@@H](O)CC(=O)O[C@H]1C)C[C@H](O)[C@H]2C(=O)O [AMPHOTERICIN B] | – | – | – | – | 23 | – | 23.5 | – | 26 | – | – | 22
6 | Cc1cnc(Cl)c(/C=C\C#N)c1 | 75 (≈ 420 µM) | 37.5 (≈ 210 µM) | 37.5 (≈ 210 µM) | 75 (≈ 420 µM) | 9 | 10 | – | 10 | 9 | 12 | – | –

Further lines, with some results ahead:

Row | MIC (Pseudomonas aeruginosa) [mg/L] | MIC (Bacillus subtilis) [mg/L] | MIC (Escherichia coli) [mg/L] | MIC (Staphylococcus aureus) [mg/L] | Compound | zone of inhibition at 100 µg/disc (Rhizopus arrhizus [1]) [mm] | zone of inhibition at 150 µg/disc (Candida albicans [2]) [mm] | zone of inhibition at 100 µg/disc (Candida albicans [3]) [mm] | zone of inhibition at 150 µg/disc (Rhizopus arrhizus [4]) [mm] | zone of inhibition at 100 µg/disc (Aspergillus niger [5]) [mm] | zone of inhibition at 150 µg/disc (Aspergillus niger [6]) [mm] | zone of inhibition at 150 µg/disc (Saccharomyces cerevisiae [7]) [mm] | zone of inhibition at 100 µg/disc (Saccharomyces cerevisiae [8]) [mm]
7 | 75 (≈ 354 µM) | 37.5 (≈ 177 µM) | 37.5 (≈ 177 µM) | 75 (≈ 354 µM) | COC(=O)/C=C/c1cc(C)cnc1Cl | 10 | 11 | 8 | 11 | 16 | 17 | – | –
8 | 75 (≈ 408 µM) | 37.5 (≈ 204 µM) | 75 (≈ 408 µM) | 37.5 (≈ 204 µM) | Cc1cnc(Cl)c(/C=C\CO)c1 | 14 | 14 | 11 | 17 | 12 | 16 | 13 | 11
9 | 12.5 (≈ 37.4 µM) | 1.56 (≈ 4.67 µM) | 12.5 (≈ 37.4 µM) | 1.56 (≈ 4.67 µM) | CC1(C)S[C@@H]2[C@H](NC(=O)Cc3ccccc3)C(=O)N2[C@H]1C(=O)O [PENICILLIN G] | – | – | – | – | – | – | – | –
10 | 37.5 (≈ 204 µM) | 37.5 (≈ 204 µM) | 37.5 (≈ 204 µM) | 75 (≈ 408 µM) | Cc1cnc(Cl)c(/C=C/CO)c1 | 16 | 15 | 13 | 18 | 14 | 17 | 14 | 12
11 | 75 (≈ 383 µM) | 37.5 (≈ 192 µM) | 75 (≈ 383 µM) | 37.5 (≈ 192 µM) | CC(=O)/C=C/c1cc(C)cnc1Cl | 12 | 17 | 13 | 13 | 13 | 14 | – | –
